{"source": "paper PMC3199867", "about": "“Targeting surface nucleolin with multivalent HB-19 and related Nucant pseudopeptides results in distinct inhibitory mechanisms depending on the malignant tumor cell type” (BMC Cancer, 2011)", "key": {"melanoma TIII cell": {"test_system": "melanoma TIII cell", "test": "Cell adhesion", "assay_type": "cell-based, murine", "settings": "after 5 hours of cell seeding, vs untreated control, mean of at least 2 independent experiments"}, "T29 cells": {"test_system": "T29 cells", "test": "Internucleosomal DNA fragmentation (low molecular weight DNA of nucleoplasm, agarose gel)", "assay_type": "cell-based, murine", "settings": "T29 cells, 2.5, 5, 10, and 20 μM, 24 hours", "excerpt": "Extraction of nuclei in buffer I (prepared as above) from viable cells results in the recovery of chromatin-free nucleoplasm. However, during cell death when DNA fragmentation occurs, the low molecular weight DNA fragments are recovered in the nucleoplasm. Consequently, supernatant of nuclear extracts from cells undergoing programmed cell death contain low molecular weight DNA fragments, whereas the pellet of the nuclear extracts contain the high molecular weight chromatin. By this experimental approach, DNA fragmentation could be analyzed without interference of the bulky DNA [51]. […] The DNA pellet was resuspended in electrophoresis buffer (10 mM Tris-HCI, pH 8.0, 1 mM EDTA) and analyzed by electrophoresis on 1.5% agarose gels containing […] ethydium bromide.\nFigure 7 HB-19 and related multivalent Nucant pseudopeptides induce cell death associated with internucleosomal DNA fragmentation. […] Cell cultures (in triplicate) were monitored for viable cell number daily for 3 days. […] T29 cells seeded at 100,000/ml in 2 ml in the absence (0 μM) or presence of N7 at various concentrations 2.5, 5, 10 and 20 μM were cultured for 3 days and the number of viable cells was determined at day 1, 2, and 3 post-seeding. […] The nuclear extracts were analyzed by immunoblotting using anti-Nt Ab (Methods). […]"}}}
{"substance": "Ac-Lys-Aib-Gly-Lys-Aib-Gly-Lys-Aib-Gly-Lys-Aib-Gly-Lys-Aib-Gly-Lys-Aib-Gly-CONH2 [Nucant N6, Presents hexavalently the pseudo-tripeptide Lysψ(CH2N)-Pro-Arg coupled to the polypeptide template containing Aib]", "values": [{"measurement": "% Inhibition of cell Adhesion", "setting": "melanoma TIII cell; 2.5 μM", "value": 15, "unit": "%"}, {"measurement": "% Inhibition of cell Adhesion", "setting": "melanoma TIII cell; 5 μM", "value": 26, "unit": "%"}, {"measurement": "% Inhibition of cell Adhesion", "setting": "melanoma TIII cell; 10 μM", "value": 38, "unit": "%"}, {"measurement": "% Inhibition of cell Adhesion", "setting": "melanoma TIII cell; 20 μM", "value": 55, "unit": "%"}, {"measurement": "DNA fragmentation", "setting": "T29 cells", "value": "Internucleosomal DNA cleavage"}]}
